Data taken from publication PMC11882969 (Nature Communications, 2025).
Values joined by “and” are separate entries in the source; they are usually repeats but may differ in a detail not shown here. Equal values may be shown once. Read-outs that look alike come from different tables or passages of the source.

Biological target: hCB2 (Homo sapiens, UniProt P34972)
Test: bioSensAll ebBRET signaling profiling, hCB2
Assay type: cell-based
Design: host or cells: HEK293SL cells, transient PEI transfection
Settings: for G15 hCB2 / Gq hCB2 / Gs hCB2 / G13 hCB2: raw signal; for EC50: read-out: EC50 [95% CI]; for Emax: normalized to CP-55,940

hCB2, sequence (P34972 whole entry): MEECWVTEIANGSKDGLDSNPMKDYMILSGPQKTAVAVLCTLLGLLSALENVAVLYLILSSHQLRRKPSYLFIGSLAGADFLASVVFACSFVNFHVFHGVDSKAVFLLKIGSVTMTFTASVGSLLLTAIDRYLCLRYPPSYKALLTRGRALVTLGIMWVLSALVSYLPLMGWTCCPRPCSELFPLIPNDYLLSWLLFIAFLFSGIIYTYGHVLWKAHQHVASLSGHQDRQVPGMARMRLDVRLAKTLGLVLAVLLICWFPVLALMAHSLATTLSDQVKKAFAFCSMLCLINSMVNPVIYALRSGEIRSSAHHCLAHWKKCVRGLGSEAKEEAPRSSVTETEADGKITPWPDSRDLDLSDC

COC(=O)[C@@](C)(NC(=O)c1cc(C)n(-c2cccc(C(F)(F)F)c2)n1)c1cccs1 [‘1350]
G15 hCB2 (Log [Compound] (M) -5.05788): 909 | Gq hCB2 (Log [Compound] (M) -5.05788): 1907 | Gs hCB2 (Log [Compound] (M) -5.05788): 9135 | G13 hCB2 (Log [Compound] (M) -5.47381): 332 | G15 hCB2 (Log [Compound] (M) -5.47381): 938 | Gq hCB2 (Log [Compound] (M) -5.47381): 1876 | Gs hCB2 (Log [Compound] (M) -5.47381): 8949 | G13 hCB2 (Log [Compound] (M) -5.89285): 339 | G15 hCB2 (Log [Compound] (M) -5.89285): 882 | Gq hCB2 (Log [Compound] (M) -5.89285): 1888 | Gs hCB2 (Log [Compound] (M) -5.89285): 8825 | G13 hCB2 (Log [Compound] (M) -6.31878): 340 | G15 hCB2 (Log [Compound] (M) -6.31878): 867 | Gq hCB2 (Log [Compound] (M) -6.31878): 1817 | Gs hCB2 (Log [Compound] (M) -6.31878): 8693 | G13 hCB2 (Log [Compound] (M) -6.72585): 337 | G15 hCB2 (Log [Compound] (M) -6.72585): 945 | Gq hCB2 (Log [Compound] (M) -6.72585): 1883 | Gs hCB2 (Log [Compound] (M) -6.72585): 8781 | G13 hCB2 (Log [Compound] (M) -7.14267): 379 | G15 hCB2 (Log [Compound] (M) -7.14267): 858 | Gq hCB2 (Log [Compound] (M) -7.14267): 1709 | Gs hCB2 (Log [Compound] (M) -7.14267): 8728 | G13 hCB2 (Log [Compound] (M) -7.55284): 353 | G15 hCB2 (Log [Compound] (M) -7.55284): 904 | Gq hCB2 (Log [Compound] (M) -7.55284): 1791 | Gs hCB2 (Log [Compound] (M) -7.55284): 8935 | G13 hCB2 (Log [Compound] (M) -8): 375 | G15 hCB2 (Log [Compound] (M) -8): 912 | Gq hCB2 (Log [Compound] (M) -8): 1812 | Gs hCB2 (Log [Compound] (M) -8): 8658 | G13 hCB2 (Log [Compound] (M) -8.22186): 364 | G15 hCB2 (Log [Compound] (M) -8.22186): 883 | Gq hCB2 (Log [Compound] (M) -8.22186): 1883 | Gs hCB2 (Log [Compound] (M) -8.22186): 9640 | G13 hCB2 (Log [Compound] (M) -8.39794): 287 | G15 hCB2 (Log [Compound] (M) -8.39794): 753 | Gq hCB2 (Log [Compound] (M) -8.39794): 1844 | Gs hCB2 (Log [Compound] (M) -8.39794): 8340 | G13 hCB2 (Log [Compound] (M) -8.68787): 322 | G15 hCB2 (Log [Compound] (M) -8.68787): 851 | Gq hCB2 (Log [Compound] (M) -8.68787): 1882 | Gs hCB2 (Log [Compound] (M) -8.68787): 8911 | G13 hCB2 (Log [Compound] (M) -9.15521): 356 | G15 hCB2 (Log [Compound] (M) -9.15521): 841 | Gq hCB2 (Log [Compound] (M) -9.15521): 1859 | Gs hCB2 (Log [Compound] (M) -9.15521): 8948 | G13 hCB2 (Log [Compound] (M) -9.61989): 303 | G15 hCB2 (Log [Compound] (M) -9.61989): 888 | Gq hCB2 (Log [Compound] (M) -9.61989): 1906 | Gs hCB2 (Log [Compound] (M) -9.61989): 8984 | G13 hCB2 (Log [Compound] (M) -10.0969): 348 | G15 hCB2 (Log [Compound] (M) -10.0969): 956 | Gq hCB2 (Log [Compound] (M) -10.0969): 1853 | Gs hCB2 (Log [Compound] (M) -10.0969): 9066 | G13 hCB2 (Log [Compound] (M) -10.5529): 333 | G15 hCB2 (Log [Compound] (M) -10.5529): 902 | Gq hCB2 (Log [Compound] (M) -10.5529): 1805 | Gs hCB2 (Log [Compound] (M) -10.5529): 9374 | G13 hCB2 (Log [Compound] (M) -11.0177): 340 | G15 hCB2 (Log [Compound] (M) -11.0177): 939 | Gq hCB2 (Log [Compound] (M) -11.0177): 1690 | Gs hCB2 (Log [Compound] (M) -11.0177): 9100 | G13 hCB2 (Log [Compound] (M) -11.4949): 323 | G15 hCB2 (Log [Compound] (M) -11.4949): 868 | Gq hCB2 (Log [Compound] (M) -11.4949): 1776 | Gs hCB2 (Log [Compound] (M) -11.4949): 8459 | G13 hCB2 (Log [Compound] (M) -11.9208): 343 | G15 hCB2 (Log [Compound] (M) -11.9208): 862 | Gq hCB2 (Log [Compound] (M) -11.9208): 1776 | Gs hCB2 (Log [Compound] (M) -11.9208): 9036 | G13 hCB2 (Log [Compound] (M) -12.3979): 327 | G15 hCB2 (Log [Compound] (M) -12.3979): 871 | Gq hCB2 (Log [Compound] (M) -12.3979): 1850 | Gs hCB2 (Log [Compound] (M) -12.3979): 8912 | G13 hCB2 (Log [Compound] (M) -12.8861): 293 | G15 hCB2 (Log [Compound] (M) -12.8861): 841 | Gq hCB2 (Log [Compound] (M) -12.8861): 1768 | Gs hCB2 (Log [Compound] (M) -12.8861): 8754 | G13 hCB2 (Log [Compound] (M) -13): 352 and 368 | G15 hCB2 (Log [Compound] (M) -13): 772 and 852 | Gq hCB2 (Log [Compound] (M) -13): 1940 and 1790 | Gs hCB2 (Log [Compound] (M) -13): 8891 and 8980 | EC50 (hCB2 Barr2 + GRK2): 4.2 nM | EC50 (hCB2 Gi2): 1.6 nM | EC50 (hCB2 GoB): 2.6 nM | EC50 (hCB2 Gz): 2.6 nM | Emax (read-out: Emax [95% CI], hCB2 Barr2 + GRK2): 30% | Emax (read-out: Emax [95% CI], hCB2 Gi1): 74% | Emax (read-out: Emax [95% CI], hCB2 Gi2): 61% | Emax (read-out: Emax [95% CI], hCB2 GoB): 59% | Emax (read-out: Emax [95% CI], hCB2 Gz): 52%
